Legend:
[1] = tested on: U937 cells in A549-U937 3-D co-culture; assay: Viability of U937 macrophage-like cells (CD45 positive) in the three-dimensional A549-U937 co-culture after exposure to 3-oxo-C12 HSL; format: cell-based, human; details: for Percentage viability, A549-U937 3-D, U937: U937 co-cultured three-dimensionally with A549, 20 hour exposure
Protocol: A549 three-dimensional aggregates were grown as described above and after 9 days of three-dimensional A549 cultivation, undifferentiated U937 monocytes were added to the HARV as follows. three-dimensional A549 cells were counted by trypsinization of an aggregate sample and U937 cells (grown in T75 flasks) were added in a 1:1 ratio to the three-dimensional A549 culture. A549 and U937 cells were co-cultured in the HARV at 20 rpm for 72 h. After addition of the monocytes, culture medium was changed after 48 hours of co-cultivation where after medium was replenished every 24 hours.
(§1) Assessment of live-, apoptotic-, and necrotic cell populations was performed with the annexin V-propidium iodide (PI) kit for flow cytometry analysis (ImmunoSource) according to the manufacturer's instructions.
(§2) Stained cell suspensions were analyzed with an EPICS XL flow cytometer (Beckman-Coulter) or a Cytomics FC 500 system (Beckman-Coulter), equipped with an argon laser and filters for adequate excitation of the chosen fluorophores. Forward scatter, side scatter, FITC-, PI and PE-Cy5 emissions were measured and a total of 10,000 cells were recorded for each sample. The respective cell populations were delimited to eliminate background signals originating from cell debris. To assess background fluorescent signals from the tested cell populations, non-stained samples were included.
three-dimensional co-cultures of A549 and U937 cells (as described above) were stained for CD45, since this marker specifically stains leukocytes.
After 72 hours of co-cultivation, aggregates containing 2×10^6 cells were seeded into 6-well plates containing fresh medium (5 ml total volume). Subsequently, aggregates were spiked with 5, 10 or 100 μM 3-oxo-C12 HSL (Sigma-Aldrich) (starting from a 20 mM stock solution in DMSO, stored at −20° C.). Equal volumes of DMSO, containing the respective amounts of 3-oxo-C12 HSL, were added to each well (25 μl) and a solvent control (25 μl DMSO) was included in each experiment. Six-well plates were placed at 37° C. in a 5% CO2 environment and incubated for 20 hours. For exposure assays of monocytes to 3-oxo-C12 HSL, 2×10^6 U937 cells/well were transferred in 6-well plates. To assess the influence of 3-oxo-C12 HSL on monocytes cultured on microcarrier beads, collagen I-coated beads were added to the cells at the same concentration as for seeding three-dimensional cultures (1 bead per 2500 cells). Subsequently, monocyte cultures (with or without microcarrier beads) were spiked with 3-oxo-C12 HSL (see above). A solvent control was included. After 20 hours incubation, cells were processed for flow cytometry analysis. Cell viability was assayed with trypan blue (0.4%) (Sigma) and/or with the annexin V-PI kit (ImmunoSource) (see above). […] FIG. 9B are examples of the three-dimensional A549-U937 co-culture model exposed to 100 μM 3-oxo-C12 HSL and to the solvent control DMSO. The presented cell population is gated for CD45 positive cells and thus only includes monocytes/macrophages. For FIGS. 9A-B, “I” represents the percentage of dead cells, while “H” is the viable cell population. Consequently, cell viability was further assessed based on the shift in forward scatter signal (see Table 1).

U937 cells [2] = details: this and other studies (Tateda 2003, Kravchenko 2006, Li 2009); cited from earlier work
U937 cells [3] = assay: Cell viability of U937 monocytes cultured alone (with or without microcarrier beads) after exposure to 3-oxo-C12 HSL, flow cytometry; format: cell-based, human; details: for Percentage viability, U937: U937 cells exposed alone, mean ± SD, N=3; for Percentage viability, U937 / Percentage viability, U937 + beads: 20 hour exposure; for Percentage viability, U937 + beads: U937 in the presence of microcarrier beads
Protocol: as §1, §2
After 72 hours of co-cultivation, aggregates containing 2×10^6 cells were seeded into 6-well plates containing fresh medium (5 ml total volume). Subsequently, aggregates were spiked with 5, 10 or 100 μM 3-oxo-C12 HSL (Sigma-Aldrich) (starting from a 20 mM stock solution in DMSO, stored at −20° C.). Equal volumes of DMSO, containing the respective amounts of 3-oxo-C12 HSL, were added to each well (25 μl) and a solvent control (25 μl DMSO) was included in each experiment. Six-well plates were placed at 37° C. in a 5% CO2 environment and incubated for 20 hours. For exposure assays of monocytes to 3-oxo-C12 HSL, 2×10^6 U937 cells/well were transferred in 6-well plates. To assess the influence of 3-oxo-C12 HSL on monocytes cultured on microcarrier beads, collagen I-coated beads were added to the cells at the same concentration as for seeding three-dimensional cultures (1 bead per 2500 cells). Subsequently, monocyte cultures (with or without microcarrier beads) were spiked with 3-oxo-C12 HSL (see above). A solvent control was included. […] Cell viability was assayed with trypan blue (0.4%) (Sigma) and/or with the annexin V-PI kit (ImmunoSource) (see above). […] FIG. 9B are examples of the three-dimensional A549-U937 co-culture model exposed to 100 μM 3-oxo-C12 HSL and to the solvent control DMSO. The presented cell population is gated for CD45 positive cells and thus only includes monocytes/macrophages. For FIGS. 9A-B, “I” represents the percentage of dead cells, while “H” is the viable cell population. Consequently, cell viability was further assessed based on the shift in forward scatter signal (see Table 1).

[4] = tested on: ICAM-1 expression of A549 cells (derived from the three-dimensional A549-U937 co-culture); assay: ICAM-1 expression of A549 cells from the three-dimensional A549-U937 co-culture exposed to 3-oxo-C12 HSL, flow cytometry; format: cell-based, human
Source text: Mouse anti-human CD45 (Invitrogen) and ICAM-1 (Invitrogen) conjugated with phycoerythrin (PE)-Cy5 and FITC respectively were used for flow cytometry staining. Sample preparation and fluorescent staining of cells. Cells were rinsed 2 times with pre-warmed HBSS (Invitrogen), detached from microcarrier beads/culture flasks with 0.25% trypsin-EDTA (Invitrogen) and counted using a hemocytometer. For inclusion of cells detached from the microcarrier beads (three-dimensional A549 and three-dimensional A549-U937 co-cultures) in the frame of QS exposure studies (see below), whole cultures (both aggregates and bulk liquid) were centrifuged at 1200 rpm for 6 min for each washing step. […]
Stained cell suspensions were analyzed with an EPICS XL flow cytometer (Beckman-Coulter) or a Cytomics FC 500 system (Beckman-Coulter), equipped with an argon laser and filters for adequate excitation of the chosen fluorophores. Forward scatter, side scatter, FITC-, PI and PE-Cy5 emissions were measured and a total of 10,000 cells were recorded for each sample. […]
After 72 hours of co-cultivation, aggregates containing 2×10^6 cells were seeded into 6-well plates containing fresh medium (5 ml total volume). […] Consequently, cell viability was further assessed based on the shift in forward scatter signal (see Table 1).

CCCCCCCCCC(=O)CC(=O)N[C@H]1CCOC1=O [3-oxo-C12 HSL, N-(3-oxododecanoyl)-Lhomoserine lactone]
macrophage cell death with inclusion of all detached cells ([1]; 100 μM versus DMSO control): no difference in macrophage cell death | decrease of the ratio of U937 cells to the total cell population in three-dimensional A549-U937 aggregates ([1]; 100 μM, compared to the non-exposed control): 37±5% | viability of macrophage-like U937 cells co-cultured with A549 in three-dimensional ([1]; 100 μM, up to 20 hours): minimally affected in viability | death in the attached macrophage-like cell population of the co-culture ([1]; 5 and 10 μM, compared to the control): did not induce increased death | Percentage viability, A549-U937 3-D, U937 ([1]; 5 μM): 97.1 ± 0.01% | Percentage viability, A549-U937 3-D, U937 ([1]; 10 μM): 99.3 ± 0.01% | Percentage viability, A549-U937 3-D, U937 ([1]; 100 μM): 93.8 ± 0.03% | cell death in three-dimensional co-cultured monocytes/macrophages with alveolar epithelium ([1]; concentrations up to 100 μM, either of the cell populations): did not induce cell death | concentrations at which apoptosis is induced in pure cultures of monocytes and macrophages (U937 cells [2]): above 25 μM | loss of viability of pure cultures of U937 cells (U937 cells [3]; 100 μM, after 2 hours of exposure): started to show significant loss of viability | viability of pure cultures of U937 cells (U937 cells [3]; 100 μM, after 5 hours of exposure): 50% | Percentage viability, U937 (U937 cells [3]; 5 μM): 82.8 ± 0.2% | Percentage viability, U937 (U937 cells [3]; 10 μM): 75.6 ± 0.6% | Percentage viability, U937 + beads (U937 cells [3]; 5 μM): 89.1 ± 1.4% | Percentage viability, U937 + beads (U937 cells [3]; 10 μM): 90.9 ± 0.4% | Percentage viability, U937 + beads (U937 cells [3]; 100 μM): 5.3 ± 0.4% | monocyte cell viability (U937 cells [3]; lower concentrations, 5 μM and 10 μM): did not induce significant differences | ICAM-1 expression increase compared to the solvent control ([4]; 100 μM, 20 hours, p<0.01, mean ± SD, N=3): 1.66±0.11 fold | ICAM-1 expression ([4]; lower concentrations of the QS molecule): did not affect ICAM-1 expression

From US20130344501A1, “METHODS FOR PRODUCING THREE-DIMENSIONAL PHYSIOLOGICALLY RELEVANT IMMUNE TISSUE SYSTEMS UNDER LOW FLUID SHEAR CONDITIONS” (priority 2010, published 2013)
